50 compounds from the Biogen ADME set (Fang et al. 2023) can be followed below.

In brackets after ≈: the same amount, converted by molar mass.

The conditions of this data set: for aqueous solubility: pH 6.8.

In the case of `C[C@@H]1Cc2ccccc2N1C(=O)Cn1nc(-c2cccc3ncccc23)oc1=O`, the MDR1-MDCK efflux ratio worked out at 0.843; the fraction unbound, human plasma turned out to be 0.0168; the fraction unbound, rat plasma was determined as 0.0229; the intrinsic clearance, human liver microsomes amounted to 73.8 mL/min/kg. This compound also displayed an intrinsic clearance, rat liver microsomes of 1080 mL/min/kg.
As a reminder, the aqueous solubility is the concentration that dissolves in the medium under given conditions. Regarding `CN(Cc1sccc1Br)c1nccnc1C#N`, the aqueous solubility was 8.5 µg/mL (≈ 27.5 µM).
As for `Cc1cc(N2CCC(C(=O)NC3CCCCC3)CC2)nc(-c2ccncc2)n1`, the intrinsic clearance, human liver microsomes was 67 mL/min/kg and the intrinsic clearance, rat liver microsomes is 193 mL/min/kg.
Turning to `CN(c1ccccc1)S(=O)(=O)c1csc(C(=O)Nc2ccc(C(=O)O)cc2)c1`, the aqueous solubility was 80.3 µg/mL (≈ 193 µM).
In the case of `N#Cc1ccc(C(=O)N2CCCO2)nc1`, the MDR1-MDCK efflux ratio stood at 0.487; the intrinsic clearance, human liver microsomes was 37.6 mL/min/kg; the intrinsic clearance, rat liver microsomes came to 1020 mL/min/kg.
For `Cc1oc(C)c(C(=O)NCC#Cc2ccccc2)c1C`, the MDR1-MDCK efflux ratio came to 0.446; the intrinsic clearance, human liver microsomes was 107 mL/min/kg; the intrinsic clearance, rat liver microsomes turned out to be 1320 mL/min/kg; the aqueous solubility came out at 48 µg/mL (≈ 180 µM).
As for `CS(=O)(=O)N1CCc2c(cccc2NC(=O)c2ccc(F)cc2)C1`, the MDR1-MDCK efflux ratio was determined as 6.4 and the aqueous solubility is 0.37 µg/mL (≈ 1.06 µM).
Consider `O=C(Nc1nccs1)c1c2c(nc3ccccc13)CCC2`, for which the MDR1-MDCK efflux ratio worked out at 1.44; the intrinsic clearance, human liver microsomes was determined as 13.2 mL/min/kg; the intrinsic clearance, rat liver microsomes was found to be 477 mL/min/kg; the aqueous solubility came to 6.78 µg/mL (≈ 23 µM).
In the case of `c1cnc(NCc2cnc3ccsc3c2)nc1`, the MDR1-MDCK efflux ratio turned out to be 0.589; the intrinsic clearance, human liver microsomes was 12.5 mL/min/kg; the intrinsic clearance, rat liver microsomes was 52.9 mL/min/kg.
For `O=C1CN(C(=O)c2cccc(Oc3cccc(C(F)(F)F)c3)c2)CCN1`, the MDR1-MDCK efflux ratio turned out to be 8.39; the intrinsic clearance, human liver microsomes is 5.25 mL/min/kg; the intrinsic clearance, rat liver microsomes was found to be 66.1 mL/min/kg; the aqueous solubility amounted to 39 µg/mL (≈ 107 µM).
For `Cc1ccc(N2CCN(C(=O)c3c(C)nc4sccn34)CC2=O)cc1`, in that order: 6.72, ≤ 4.74 mL/min/kg, 32.3 mL/min/kg and 61.6 µg/mL (≈ 174 µM).
On the same counts, the results for `CCOCC(=O)NCc1cc(C2CC2)n(C2CCCC2)n1` are 0.768, 21.9 mL/min/kg, 264 mL/min/kg and 37.9 µg/mL (≈ 130 µM).
`NC(=O)Cc1nc(-c2ccc(Cl)cc2Cl)cs1` returned an aqueous solubility of 41 µg/mL (≈ 143 µM).
Turning to `Cc1cccc(-c2nc(CN(Cc3cnn(C)c3)C(C)C)c(C)o2)c1`, the MDR1-MDCK efflux ratio was determined as 1.24; the intrinsic clearance, human liver microsomes was found to be 62.6 mL/min/kg; the intrinsic clearance, rat liver microsomes is 4560 mL/min/kg; the aqueous solubility is 21.4 µg/mL (≈ 63.4 µM).
Turning to `O=C(COc1ccc2ccc(=O)oc2c1)Nc1cccc(COCc2ccco2)c1`, the intrinsic clearance, human liver microsomes amounted to 77.5 mL/min/kg; the intrinsic clearance, rat liver microsomes amounted to 425 mL/min/kg; the aqueous solubility amounted to 21.4 µg/mL (≈ 52.7 µM).
As to `Cc1ccc(C(=O)COC(=O)c2cc(O)nc3ccccc23)cc1`, the MDR1-MDCK efflux ratio amounted to 0.502 and the aqueous solubility was determined as 0.69 µg/mL (≈ 2.15 µM).
On to `Cc1nc(CN(C)C(=O)C2c3ccccc3-c3ccccc32)no1`, for which the MDR1-MDCK efflux ratio is 1.09; the intrinsic clearance, human liver microsomes was 15 mL/min/kg; the intrinsic clearance, rat liver microsomes was 430 mL/min/kg; the aqueous solubility came out at 32.6 µg/mL (≈ 102 µM).
Take `CC(=O)Nc1ncc(C(=O)O)s1`: the fraction unbound, human plasma stood at 0.66 and the fraction unbound, rat plasma is 0.715.
`Cc1cc(NC2CCCC2)nc(C2CCNCC2)n1`: the MDR1-MDCK efflux ratio worked out at 66.7; the intrinsic clearance, human liver microsomes is ≤ 4.74 mL/min/kg; the intrinsic clearance, rat liver microsomes turned out to be 24.8 mL/min/kg; the aqueous solubility was found to be 71.4 µg/mL (≈ 274 µM).
`CC(C)N(C(=O)Cn1cccc2cc(C(F)F)nc1-2)C(C)C`: the MDR1-MDCK efflux ratio stood at 4.05; the intrinsic clearance, human liver microsomes amounted to 285 mL/min/kg; the intrinsic clearance, rat liver microsomes amounted to 436 mL/min/kg.
Turning to `CCOc1ccc(CC(=O)N2CCC3(CC2)Nc2cc(C)ccc2-n2cccc23)cc1OCC`, the intrinsic clearance, human liver microsomes stood at 187 mL/min/kg and the intrinsic clearance, rat liver microsomes came out at 956 mL/min/kg.
As to `CCOc1ccc(C(=O)Nc2cnn(C3CCOCC3)c2)cn1`, the MDR1-MDCK efflux ratio is 1.41; the intrinsic clearance, human liver microsomes is ≤ 4.74 mL/min/kg; the intrinsic clearance, rat liver microsomes was determined as 106 mL/min/kg; the aqueous solubility was 39.9 µg/mL (≈ 126 µM).
In the case of `CCOC(=O)C1(Cc2cc(-c3cccc(F)c3)no2)CCN(Cc2ccccc2O)CC1`, the aqueous solubility was found to be 0.68 µg/mL (≈ 1.55 µM).
`Cc1ccc(OCCCC(=O)N2CCC(n3c(=O)[nH]c4ccccc43)CC2)cc1`: the intrinsic clearance, human liver microsomes was found to be 123 mL/min/kg and the intrinsic clearance, rat liver microsomes is 1540 mL/min/kg.
Turning to `CN(C)c1cccc(Cn2ccnc2-c2ccc(O)cc2)c1`, the MDR1-MDCK efflux ratio worked out at 3.77; the intrinsic clearance, human liver microsomes was 77.7 mL/min/kg; the intrinsic clearance, rat liver microsomes came out at 1040 mL/min/kg; the aqueous solubility worked out at 27.1 µg/mL (≈ 92.5 µM).
On to `O=C(CN1CCc2ccccc21)N1CCC(c2nc3ccccc3[nH]2)CC1`, for which the MDR1-MDCK efflux ratio is 56.1; the intrinsic clearance, human liver microsomes was determined as 112 mL/min/kg; the intrinsic clearance, rat liver microsomes turned out to be 1180 mL/min/kg; the aqueous solubility amounted to 52.5 µg/mL (≈ 146 µM).
`O=C(CCc1cn[nH]c1)NCCCn1cc(Cl)cn1`: the MDR1-MDCK efflux ratio came to 18.1; the intrinsic clearance, human liver microsomes was ≤ 4.74 mL/min/kg; the intrinsic clearance, rat liver microsomes came out at 27.9 mL/min/kg.
For the compound `O=C(CC[C@@H]1CCCN2CCCC[C@H]12)NCc1cnc2c(c1)CCC2`, the MDR1-MDCK efflux ratio amounted to 26.7; the intrinsic clearance, human liver microsomes was ≤ 4.74 mL/min/kg; the intrinsic clearance, rat liver microsomes is 286 mL/min/kg.
The compound `O=C(Nc1cccc2ncccc12)[C@H]1CCCN(S(=O)(=O)c2cccs2)C1` yielded an intrinsic clearance, human liver microsomes of 35.8 mL/min/kg and an intrinsic clearance, rat liver microsomes of 614 mL/min/kg.
In the case of `Cc1nn(CCNS(=O)(=O)N2CCCCC2)c(C)c1C`, the MDR1-MDCK efflux ratio turned out to be 1.53; the intrinsic clearance, human liver microsomes amounted to 163 mL/min/kg; the intrinsic clearance, rat liver microsomes turned out to be 3200 mL/min/kg.
Turning to `CCCn1c(=O)c2c(nc3n2CCN3c2ccc(C)cc2)n(C)c1=O`, the aqueous solubility was 0.15 µg/mL (≈ 0.442 µM).
`Cc1c(C(=O)NCCc2cc3nc(-c4ccco4)ccn3n2)cnn1C` showed an intrinsic clearance, human liver microsomes of 29 mL/min/kg and an intrinsic clearance, rat liver microsomes of 173 mL/min/kg.
For the compound `C/C(=C/COc1c2occc2cc2ccc(=O)oc12)CO`, the MDR1-MDCK efflux ratio was found to be 0.662; the intrinsic clearance, human liver microsomes turned out to be 18.3 mL/min/kg; the intrinsic clearance, rat liver microsomes amounted to 442 mL/min/kg.
In turn, `C[C@@H](CN1CCC(n2c(=O)[nH]c3cc(Br)ccc32)CC1)NC(=O)[C@@H]1C[C@H]1c1ccccc1` yielded an intrinsic clearance, rat liver microsomes of 574 mL/min/kg.
On to `COc1ccc(OC)c(S(=O)(=O)NCCC(=O)Nc2ccccc2C)c1`, for which the MDR1-MDCK efflux ratio amounted to 19.9; the intrinsic clearance, human liver microsomes was found to be 51.5 mL/min/kg; the intrinsic clearance, rat liver microsomes was 616 mL/min/kg.
Turning to `Cc1cc(C(=O)NCC2(c3ccccc3)CC2)on1`, the intrinsic clearance, human liver microsomes was ≤ 4.74 mL/min/kg; the intrinsic clearance, rat liver microsomes was 109 mL/min/kg; the aqueous solubility was 40.1 µg/mL (≈ 157 µM).
With `Cc1ccc(C(=O)N(C)Cc2c(C)noc2C)cn1`, the MDR1-MDCK efflux ratio was 1.35; the intrinsic clearance, human liver microsomes is ≤ 4.74 mL/min/kg; the intrinsic clearance, rat liver microsomes was ≤ 10.7 mL/min/kg; the aqueous solubility came out at 40.8 µg/mL (≈ 157 µM).
On to `N#CC1(NC(=O)CN2CCOCC2)CCCCCC1`, for which the MDR1-MDCK efflux ratio turned out to be 2.14; the intrinsic clearance, human liver microsomes is ≤ 4.74 mL/min/kg; the intrinsic clearance, rat liver microsomes was determined as 65.6 mL/min/kg; the aqueous solubility was found to be 45.1 µg/mL (≈ 170 µM).
`Nc1ccccc1-c1nc(C2CC2)no1` registered an intrinsic clearance, human liver microsomes of 322 mL/min/kg and an intrinsic clearance, rat liver microsomes of 754 mL/min/kg.
For `O=C(Nc1ccn(Cc2ccccn2)n1)c1c(F)cccc1I`, the MDR1-MDCK efflux ratio is 2.85; the intrinsic clearance, human liver microsomes was ≤ 4.74 mL/min/kg; the intrinsic clearance, rat liver microsomes was 132 mL/min/kg; the aqueous solubility came out at 61.2 µg/mL (≈ 145 µM).
For `O=c1c2cccnc2ncn1[C@H]1CCCc2ccccc21`, the MDR1-MDCK efflux ratio was determined as 0.837; the intrinsic clearance, human liver microsomes is ≤ 4.74 mL/min/kg; the intrinsic clearance, rat liver microsomes was 119 mL/min/kg.
Regarding `O=C(Nc1ccccc1-n1ccnc1)c1ccc(F)cc1`, the MDR1-MDCK efflux ratio was 0.961; the intrinsic clearance, human liver microsomes stood at 10.2 mL/min/kg; the intrinsic clearance, rat liver microsomes was determined as 40.3 mL/min/kg; the aqueous solubility was determined as 60.8 µg/mL (≈ 216 µM).
`O=C(C1CC1c1ccccc1F)N1CCC(n2c(=O)[nH]c3ccccc32)CC1` (stereo not drawn) returned an intrinsic clearance, human liver microsomes of 47.2 mL/min/kg; an intrinsic clearance, rat liver microsomes of 1190 mL/min/kg; an aqueous solubility of 49.9 µg/mL (≈ 131 µM).
In the case of `Cc1nc(NCCN2C(=O)CCC2=O)c2c(C)csc2n1`, the MDR1-MDCK efflux ratio amounted to 6.04; the intrinsic clearance, human liver microsomes was 8.08 mL/min/kg; the intrinsic clearance, rat liver microsomes is 158 mL/min/kg.
As to `Cc1nccc(-c2cccc(NCC(=O)N(C)c3ccccc3)c2)n1`, the MDR1-MDCK efflux ratio was 0.964; the intrinsic clearance, human liver microsomes was found to be 22 mL/min/kg; the intrinsic clearance, rat liver microsomes was determined as 401 mL/min/kg; the aqueous solubility came to 38.2 µg/mL (≈ 115 µM).
For `CSc1ccc(-c2ccc3n(c2=O)C[C@@H]2CNC[C@H]3C2)cc1`, in that order: 1.42, 5.01 mL/min/kg, 19.3 mL/min/kg and 51.2 µg/mL (≈ 164 µM).
For `O=c1c2oc3ccccc3c2ncn1Cc1ccc(Cl)cc1`, the MDR1-MDCK efflux ratio is 0.573; the intrinsic clearance, human liver microsomes turned out to be 103 mL/min/kg; the intrinsic clearance, rat liver microsomes came out at 906 mL/min/kg.
With `O=C(CN1CCCN(c2nccs2)CC1)Nc1cccc(Cl)c1`, the MDR1-MDCK efflux ratio turned out to be 0.851; the intrinsic clearance, human liver microsomes turned out to be 442 mL/min/kg; the intrinsic clearance, rat liver microsomes amounted to 1950 mL/min/kg; the aqueous solubility is 37.1 µg/mL (≈ 106 µM).
With `CC(C)NC(=O)CN(C)c1ccc(Cl)c(C#N)n1`, the intrinsic clearance, human liver microsomes was ≤ 4.74 mL/min/kg and the intrinsic clearance, rat liver microsomes came out at 87.1 mL/min/kg.
Take `COC1(c2nc(Cc3ccccc3)no2)CCN(Cc2cnc(C)o2)CC1`: the MDR1-MDCK efflux ratio turned out to be 1.12; the intrinsic clearance, human liver microsomes was determined as 18 mL/min/kg; the intrinsic clearance, rat liver microsomes is 285 mL/min/kg.
